test system: anaesthetised male Sprague Dawley rats; test: Phenylephrine-induced acute arterial hypertension and SNP-induced blood pressure response (MAP); assay type: in vivo; details: 3 mg/kg orally 90 min prior to SNP (30 μg/kg i.v.); continuous i.v. PE-infusion; vs. placebo
Source text: Nitric oxide regulates smooth muscle tone by elevation of cGMP via activation of guanylate cyclase and subsequent activation of cyclic GMP-dependent protein kinase. The amplitude and duration of the cGMP signal in smooth muscle is largely regulated by cGMP-specific cyclic nucleotide phosphodiesterase 5 (PDE5). […] The aim of the study was to evaluate the effects of the selective PDE5 inhibitors described in this present subject matter on phenylephrine-induced acute arterial hypertension and sodium-nitroprusside (SNP) induced blood pressure response in anaesthetised male Sprague Dawley rats.
The test compound (suspended in a 4% w/v aqueous methylcellulose solution 3 mg/kg) or placebo (i.e. 4% aqueous methylcellulose solution) is administered orally to conscious Sprague Dawley rats 90 min prior to SNP administration. 40 min later, rats are anaesthetised by intramuscular administration of 80 mg/kg ketamine-HCl+4 mg/kg xylazin-HCl and ventilated with ˜1.5% isoflurane in a mixture of ambient air and 40% oxygen. Catheters for i.v. PE- and SNP-administration and recording of mean arterial blood pressure (MAP) are inserted. […] To assess the effect of test compounds (PDE5 inhibitory activity) in comparison to placebo, MAP response is analysed. […]

Compound | efficacy (% change vs. control), corr. AUCMAP 0-180 s following SNP-administration [%]
CC(=O)N1CCC(NC(=O)c2c(C)[nH]c3c(-c4c(OCC5CC5)ccc5c4OCO5)ccnc23)CC1 [Example E01, N-(1-Acetylpiperidin-4-yl)-7-[5-(cyclopropylmethoxy)-1,3-benzodioxol-4-yl]-2-methyl-1H-pyrrolo[3,2-b]pyridine-3-carboxamide] | ~−27
Cc1[nH]c2c(-c3c(OCC4CC4)ccc4c3OCO4)ccnc2c1C(=O)NC1CCN(C(=O)[C@H](C)O)CC1 [Example F02, 7-[5-(Cyclopropylmethoxy)-1,3-benzodioxol-4-yl]-N-{1-[(2S)-2-hydroxypropanoyl]piperidin-4-yl}-2-methyl-1H-pyrrolo[3,2-b]pyridine-3-carboxamide] | ~−27

target: T1, PDE5A1 (human PDE5 from platelets) (Homo sapiens, UniProt O76074); test: Inhibition of type 5 phosphodiesterase (PDE5) activity, modified SPA test; assay type: biochemical; details: PDE5-containing human platelet lysate, 0.5 μM cGMP, value classes, read-out: PDE5A1 inhibitory values [measured as −logIC50 (mol/l)] (converted)
T1 construct: from tissue; host or cells: platelets from fresh blood of human donors (10,000 g supernatant of sonified platelets)
Method in brief: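 Enzyme source: human platelet lysate (10,000 g supernatant), with 1 μM motapizone and 10 nM PDE2 inhibitor present. SPA format in 20 mM Tris pH 7.4, 5 mM Mg2+, 0.5 μM cGMP with [3H]cGMP tracer; 5 min preincubation at 37 °C, 15 min reaction, stopped with IBMX-containing beads. IC50 by non-linear regression.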

Compound | IC50 [nM]
CC(=O)N1CCC(NC(=O)c2c(C)[nH]c3c(-c4c(OCC5CC5)ccc5c4OCO5)ccnc23)CC1 [Example E01, N-(1-Acetylpiperidin-4-yl)-7-[5-(cyclopropylmethoxy)-1,3-benzodioxol-4-yl]-2-methyl-1H-pyrrolo[3,2-b]pyridine-3-carboxamide] | < 1
Cc1[nH]c2c(-c3c(OCC4CC4)ccc4c3OCO4)ccnc2c1C(=O)NC1CCN(C(=O)[C@H](C)O)CC1 [Example F02, 7-[5-(Cyclopropylmethoxy)-1,3-benzodioxol-4-yl]-N-{1-[(2S)-2-hydroxypropanoyl]piperidin-4-yl}-2-methyl-1H-pyrrolo[3,2-b]pyridine-3-carboxamide] | < 1
Cc1ccc(OCC2CC2)c(-c2ccnc3c(C(=O)N[C@H]4CC[C@@H](NC(=O)[C@H](C)O)CC4)c(C)[nH]c23)c1 [Example F39, 7-[2-(Cyclopropylmethoxy)-5-methylphenyl]-N-(cis-4-{[(2S)-2-hydroxypropanoyl]amino}cyclohexyl)-2-methyl-1H-pyrrolo[3,2-b]pyridine-3-carboxamide] | 1 to 10
COc1cc(-c2ccnc3c(C(=O)NC4CCN(C(=O)CO)CC4)c(C)[nH]c23)c(OCC2CC2)cc1F [Example F40, 7-[2-(Cyclopropylmethoxy)-4-fluoro-5-methoxyphenyl]-N-[1-(hydroxyacetyl)piperidin-4-yl]-2-methyl-1H-pyrrolo[3,2-b]pyridine-3-carboxamide] | < 1
COc1cc(-c2ccnc3c(C(=O)NC4CCN(C(=O)[C@H](C)O)CC4)c(C)[nH]c23)c(OCC2CC2)cc1F [Example F41, 7-[2-(Cyclopropylmethoxy)-4-fluoro-5-methoxyphenyl]-N-{1-[(2S)-2-hydroxypropanoyl]piperidin-4-yl}-2-methyl-1H-pyrrolo[3,2-b]pyridine-3-carboxamide] | < 1
COc1cc(-c2ccnc3c(C(=O)N[C@H]4CC[C@H](NC(=O)CO)CC4)c(C)[nH]c23)c(OCC2CC2)cc1F [Example F42, 7-[2-(Cyclopropylmethoxy)-4-fluoro-5-methoxyphenyl]-N-{trans-4-[(hydroxyacetyl)amino]cyclohexyl}-2-methyl-1H-pyrrolo[3,2-b]pyridine-3-carboxamide] | < 1
COc1cc(-c2ccnc3c(C(=O)N[C@H]4CC[C@H](NC(=O)[C@H](C)O)CC4)c(C)[nH]c23)c(OCC2CC2)cc1F [Example F43, 7-[2-(Cyclopropylmethoxy)-4-fluoro-5-methoxyphenyl]-N-(trans-4-{[(2S)-2-hydroxypropanoyl]amino}cyclohexyl)-2-methyl-1H-pyrrolo[3,2-b]pyridine-3-carboxamide] | < 1
COc1cc(-c2ccnc3c(C(=O)N[C@H]4CC[C@@H](NC(=O)CO)CC4)c(C)[nH]c23)c(OCC2CC2)cc1F [Example F44, 7-[2-(Cyclopropylmethoxy)-4-fluoro-5-methoxyphenyl]-N-{cis-4-[(hydroxyacetyl)amino]cyclohexyl}-2-methyl-1H-pyrrolo[3,2-b]pyridine-3-carboxamide] | < 1
COc1cc(-c2ccnc3c(C(=O)N[C@H]4CC[C@@H](NC(=O)[C@H](C)O)CC4)c(C)[nH]c23)c(OCC2CC2)cc1F [Example F45, 7-[2-(Cyclopropylmethoxy)-4-fluoro-5-methoxyphenyl]-N-(cis-4-{[abs.(2S)-2-hydroxypropanoyl]amino}cyclohexyl)-2-methyl-1H-pyrrolo[3,2-b]pyridine-3-carboxamide] | < 1
COc1cc(OCC2CC2)c(-c2ccnc3c(C(=O)NC4CCN(C(=O)CO)CC4)c(C)[nH]c23)cc1F [Example F50, 7-[2-(Cyclopropylmethoxy)-5-fluoro-4-methoxyphenyl]-N-(1-glycoloylpiperidin-4-yl)-2-methyl-1H-pyrrolo[3,2-b]pyridine-3-carboxamide] | < 1
COc1cc(OCC2CC2)c(-c2ccnc3c(C(=O)NC4CCN(C(=O)[C@H](C)O)CC4)c(C)[nH]c23)cc1F [Example F51, 7-[2-(Cyclopropylmethoxy)-5-fluoro-4-methoxyphenyl]-N-{1-[(2S)-2-hydroxypropanoyl]piperidin-4-yl}-2-methyl-1H-pyrrolo[3,2-b]pyridine-3-carboxamide] | < 1
COc1cc(OCC2CC2)c(-c2ccnc3c(C(=O)N[C@H]4CC[C@H](NC(=O)CO)CC4)c(C)[nH]c23)cc1F [Example F52, 7-[2-(Cyclopropylmethoxy)-5-fluoro-4-methoxyphenyl]-N-[trans-4-(glycoloylamino)cyclohexyl]-2-methyl-1H-pyrrolo[3,2-b]pyridine-3-carboxamide] | < 1
COc1cc(OCC2CC2)c(-c2ccnc3c(C(=O)N[C@H]4CC[C@H](NC(=O)[C@H](C)O)CC4)c(C)[nH]c23)cc1F [Example F53, 7-[2-(Cyclopropylmethoxy)-5-fluoro-4-methoxyphenyl]-N-(trans-4-{[(2S)-2-hydroxypropanoyl]amino}cyclohexyl)-2-methyl-1H-pyrrolo[3,2-b]pyridine-3-carboxamide] | < 1
COc1cc(OCC2CC2)c(-c2ccnc3c(C(=O)N[C@H]4CC[C@@H](NC(=O)CO)CC4)c(C)[nH]c23)cc1F [Example F54, 7-[2-(Cyclopropylmethoxy)-5-fluoro-4-methoxyphenyl]-N-[cis-4-(glycoloylamino)cyclohexyl]-2-methyl-1H-pyrrolo[3,2-b]pyridine-3-carboxamide] | < 1
